SMILES strings stand for the structures.

In experiment [1] the target is T1, human recombinant 5-HT2C receptor (Homo sapiens, UniProt P28335).
T1 construct: purchased PerkinElmer
T1 sequence (P28335 33-458): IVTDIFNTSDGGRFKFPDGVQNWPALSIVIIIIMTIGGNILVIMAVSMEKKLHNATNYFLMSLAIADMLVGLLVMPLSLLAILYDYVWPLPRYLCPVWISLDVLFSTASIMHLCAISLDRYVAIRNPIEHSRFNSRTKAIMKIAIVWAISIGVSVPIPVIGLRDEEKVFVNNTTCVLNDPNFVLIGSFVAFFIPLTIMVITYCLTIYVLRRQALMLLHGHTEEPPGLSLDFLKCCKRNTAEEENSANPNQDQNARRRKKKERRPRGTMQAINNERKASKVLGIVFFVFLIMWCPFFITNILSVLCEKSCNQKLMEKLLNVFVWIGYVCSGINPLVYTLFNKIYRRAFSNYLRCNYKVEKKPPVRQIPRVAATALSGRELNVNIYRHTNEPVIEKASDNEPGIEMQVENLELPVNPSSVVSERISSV
In words: Binding affinity for serotonin 5-HT2C receptor ([3H]Mesulergine). The settings on record: CHO-K1 membranes, 1.3 nM [3H]Mesulergine; read-out: binding affinity (IC50) 5-HT2C. Here is the method: (§1) Receptor binding affinities of the compounds for serotonin receptors were measured by the method described in the literature (see [Park W K et al., Pharmacol Biochem Behav., 82(2), 361-372 (2005)].
(§2) The binding affinity (IC50) of a compound for the receptor was calculated by computerized nonlinear regression analysis (GraphPad Prism Program, San Diego, USA) using 7-8 varied concentrations of the compound run in duplicate tubes.
For serotonin 5-HT2C binding, frozen membranes from stable CHO-K1 cell line expressing the human recombinant 5-HT2C receptor (PerkinElmer, 4 μg/well), [^3H]Mesulergine (Amersham, 1.3 nM) and test compounds were added into 50 mM Tris-HCl (pH 7.4) buffer containing 0.1% ascorbic acid and 4 mM CaCl2. Nonspecific binding was determined using 100 μM mianserin. The incubations were performed for 60 min at 27, and these were terminated by rapid filtration through filtermate A glass fiber filter presoaked in 0.5% PEI.

The target in experiment [2] is T2, human recombinant serotonin 5-HT2A receptor (Homo sapiens, UniProt P28223).
T2 construct: purchased PerkinElmer Life and Analytical Sciences, USA; host or cells: CHO-K1 cells
T2 sequence (P28223 whole entry): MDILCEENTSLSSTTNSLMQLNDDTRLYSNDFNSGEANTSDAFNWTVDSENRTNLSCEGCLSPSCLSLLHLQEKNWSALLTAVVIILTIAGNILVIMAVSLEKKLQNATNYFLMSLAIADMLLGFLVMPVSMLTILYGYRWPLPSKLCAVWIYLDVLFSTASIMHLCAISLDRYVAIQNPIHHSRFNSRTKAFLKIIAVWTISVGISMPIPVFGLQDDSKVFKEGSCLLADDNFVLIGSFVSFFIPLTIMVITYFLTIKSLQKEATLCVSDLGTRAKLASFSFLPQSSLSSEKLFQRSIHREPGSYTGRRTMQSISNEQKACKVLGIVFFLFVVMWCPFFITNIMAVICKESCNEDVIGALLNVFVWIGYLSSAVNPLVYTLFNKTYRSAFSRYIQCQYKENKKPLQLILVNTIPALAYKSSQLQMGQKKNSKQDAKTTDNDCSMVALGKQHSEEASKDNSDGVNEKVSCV
Put plainly: Binding affinity for serotonin 5-HT2A receptor ([3H]Ketanserin). The settings on record: CHO-K1 cells, 1 nM [3H]Ketanserin; read-out: binding affinity (IC50) 5-HT2A. The method, then: as §1
For serotonin 5-HT2A binding, an aliquot of human recombinant serotonin 5-HT2A receptor (PerkinElmer Life and Analytical Sciences, USA) expressed in CHO-K1 cells (5 μg/well) and 1 nM [^3H]Ketanserin (PerkinElmer) were used in the presence of mianserin (20 μM) as a nonspecific. The reaction mixture was incubated for 60 min […] 50 mM Tris-HCl (pH 7.4) buffer containing 4 mM CaCl2 and 0.1% ascorbic acid, and harvested through filtermate A glass fiber filter (Wallac, Finland) presoaked in 0.5% polyethyleneimine (PEI) by microbeta filtermate-96 harvester (PerkinElmer) to terminate the reaction, and then washed with ice cold 50 mM Tris-HCl buffer solution (pH 7.4). The filter was then covered with MeltiLex, sealed in a sample bag, dried in an oven. The radioactivity retained in the filter was finally counted using MicroBeta Plus (Wallac).
as §2

In experiment [3] the target is T3, human serotonin transporter (Homo sapiens, UniProt P31645).
T3 construct: purchased PerkinElmer; host or cells: HEK-293 cells
T3 sequence (P31645 whole entry): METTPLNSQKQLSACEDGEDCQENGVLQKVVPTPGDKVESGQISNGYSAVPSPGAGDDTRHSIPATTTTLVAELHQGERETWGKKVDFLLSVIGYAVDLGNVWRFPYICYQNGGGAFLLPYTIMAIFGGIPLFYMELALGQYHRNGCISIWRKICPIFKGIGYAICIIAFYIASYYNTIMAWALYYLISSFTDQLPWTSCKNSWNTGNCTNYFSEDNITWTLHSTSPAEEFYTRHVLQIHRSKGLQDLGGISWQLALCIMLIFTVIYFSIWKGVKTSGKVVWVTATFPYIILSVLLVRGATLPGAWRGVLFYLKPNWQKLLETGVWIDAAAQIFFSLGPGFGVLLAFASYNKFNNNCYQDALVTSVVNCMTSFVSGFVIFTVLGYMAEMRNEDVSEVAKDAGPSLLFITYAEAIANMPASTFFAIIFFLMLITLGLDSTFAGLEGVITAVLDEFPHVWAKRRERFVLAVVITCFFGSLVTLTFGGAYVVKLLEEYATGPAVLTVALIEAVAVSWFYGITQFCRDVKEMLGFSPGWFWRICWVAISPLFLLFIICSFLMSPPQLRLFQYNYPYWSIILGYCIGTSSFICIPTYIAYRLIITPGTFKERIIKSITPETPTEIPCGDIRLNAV
In words: Binding affinity for serotonin transporter ([3H]Imipramine). The settings on record: HEK-293 membrane, 2 nM [3H]Imipramine; read-out: binding affinity Serotonin Transporter. The method, then:
For serotonin transporter binding assays, a reaction mixture with a final volume of 0.25 ml was prepared by mixing a test compound, human serotonin transporter membrane expressed in HEK-293 cells (PerkinElmer, 5 μg/well), [^3H] Imipramine (PerkinElmer, 2 nM) and 50 mM Tris-HCl (pH 7.4) buffer containing 120 mM NaCl and 5 mM KCl. The reaction mixture was incubated for 30 min at 27, and harvested through filtermate A glass fiber filter presoaked in 0.5% PEI with ice cold 50 mM Tris-HCl buffer (pH 7.4) containing 0.9% NaCl.

For another experiment, the system named is mice. Put plainly: Anti-depressants activity in forced swimming test. The experiment is classed as in vivo. The settings on record: 60 min before testing.

Method for mice: Each mouse was placed in a 25 cm glass cylinder (10 cm diameter) containing 15 cm of water maintained at 22±1, and was forced to swim for 10 min. 24 hours later, the mouse was replaced into the cylinder and the total duration of immobility was recorded during the last 5 min of the 6-min testing period. Mice are judged immobile when they float in an upright position and make only small movements to keep their head above water. Test drugs were suspended in 3% Tween 80 solution, and administered orally (po) 60 min before the testing.

Regarding `CCc1nc2c(NCC(O)CN3CCN(c4cccc(C)c4C)CC3)ncnc2n1-c1ccc2c(c1)OCO2` (centres unmarked) [Example 40, 1-(9-(benzo[d][1,3]dioxol-5-yl)-8-ethyl-9H-purin-6-ylamino)-3-(4-(2,3-dimethylphenyl)piperazin-1-yl)propan-2-ol], the IC50 in experiment [1] was 0.713 µM; in experiment [2], 0.125 µM; in experiment [3], 0.018 µM. Moreover, in the experiment with mice (25 mg/kg po), the “Immobility in forced swimming test” value is given as 98.20 ± 10.00%.

Consider `Cc1cccc(N2CCN(CCCNc3ncnc4c3ncn4-c3ccc4c(c3)OCCO4)CC2)c1C` [Example 41, 9-(2,3-dihydrobenzo[b][1,4]dioxin-6-yl)-N-(3-(4-(2,3-dimethylphenyl)piperazin-1-yl)propyl)-9H-purine-6-amine], for which the results for the IC50 in experiment [1], in experiment [2] and in experiment [3] were 0.224 µM, 0.016 µM and 0.007 µM, respectively. Further, the “Immobility in forced swimming test” value with mice (25 mg/kg po) was 105.95 ± 4.92%.

Turning to `Cc1cccc(N2CCN(CC(O)CNc3ncnc4c3ncn4-c3ccc4c(c3)OCCO4)CC2)c1C` (centres unmarked) [Example 42, 1-(9-(2,3-dihydrobenzo[b][1,4]dioxin-6-yl)-9H-purin-6-ylamino)-3-(4-(2,3-dimethylphenyl)piperazin-1-yl)propan-2-ol], the IC50 in experiment [1] was determined as 0.56 µM; in experiment [2] it was 0.04 µM; in experiment [3], 0.008 µM. In addition, in the experiment with mice (25 mg/kg po), the “Immobility in forced swimming test” value was 86.65 ± 6.40%.

`Cc1cccc(N2CCN(CCCNc3ncnc4c3nc(C)n4-c3ccc4c(c3)OCCO4)CC2)c1C` [Example 43, 9-(2,3-dihydrobenzo[b][1,4]dioxin-6-yl)-N-(3-(4-(2,3-dimethylphenyl)piperazin-1-yl)propyl)-8-methyl-9H-purine-6-amine]: the IC50 in experiment [1] came out at 0.118 µM; in experiment [2], 0.014 µM; in experiment [3], 0.016 µM. The “Immobility in forced swimming test” value in the experiment with mice (25 mg/kg po) was 81.26 ± 11.85%.

In the case of `Cc1cccc(N2CCN(CC(O)CNc3ncnc4c3nc(C)n4-c3ccc4c(c3)OCCO4)CC2)c1C` (centres unmarked) [Example 44, 1-(9-(2,3-dihydrobenzo[b][1,4]dioxin-6-yl)-8-methyl-9H-purin-6-ylamino)-3-(4-(2,3-dimethylphenyl)piperazin-1-yl)propan-2-ol], the IC50 in experiment [1] is 0.51 µM; in experiment [2], 0.054 µM; in experiment [3], 0.065 µM. Further, the “Immobility in forced swimming test” value in the experiment on mice (25 mg/kg po) was 80.41 ± 7.04%.

Consider `CCc1nc2c(NCCCN3CCN(c4cccc(C)c4C)CC3)ncnc2n1-c1ccc2c(c1)OCCO2` [Example 45, 9-(2,3-dihydrobenzo[b][1,4]dioxin-6-yl)-N-(3-(4-(2,3-dimethylphenyl)piperazin-1-yl)propyl)-8-ethyl-9H-purine-6-amine], for which the IC50 in experiment [1] was 0.151 µM; in experiment [2], 0.014 µM; in experiment [3], 0.049 µM. Besides, the “Immobility in forced swimming test” value with mice (25 mg/kg po) is 97.64 ± 7.25%.

`Cc1cccc(N2CCN(CCCNc3ncnc4c3nc(C)n4-c3ccc(F)cc3)CC2)c1C` [Example 49, N-(3-(4-(2,3-dimethylphenyl)piperazin-1-yl)propyl)-9-(4-fluorophenyl)-8-methyl-9H-purine-6-amine]: the IC50 in experiment [1] is 0.364 µM; in experiment [2] it was 0.047 µM; in experiment [3], 0.062 µM. Besides, the “Immobility in forced swimming test” value in the experiment on mice (25 mg/kg po) was found to be 81.07 ± 7.11%.

On to `CCc1nc2c(NCCCN3CCN(c4cccc(C)c4C)CC3)ncnc2n1-c1ccc(F)cc1` [Example 51, N-(3-(4-(2,3-dimethylphenyl)piperazin-1-yl)propyl)-8-ethyl-9-(4-fluorophenyl)-9H-purine-6-amine], for which the IC50 in experiment [1] is 0.423 µM; in experiment [2], 0.066 µM; in experiment [3] it was 0.019 µM. Besides, the “Immobility in forced swimming test” value with mice (25 mg/kg po) turned out to be 99.44 ± 10.28%.

As to `Cc1cccc(N2CCN(CCNc3ncnc4c3nc(C)n4-c3ccc(F)cc3)CC2)c1C` [Example 55, N-(2-(4-(2,3-dimethylphenyl)piperazin-1-yl)ethyl)-9-(4-fluorophenyl)-8-methyl-9H-purine-6-amine], the IC50 was 0.129 µM in experiment [1], 0.0311 µM in experiment [2] and 0.518 µM in experiment [3]. Also, the figures for the “Immobility in forced swimming test” value in the experiment with mice (25 mg/kg po) and with mice (50 mg/kg po) were 70.53 ± 11.73% and 78.41 ± 8.11%, respectively.

For `CCc1nc2c(NCCN3CCN(c4cccc(C)c4C)CC3)ncnc2n1-c1ccc(F)cc1` [Example 56, N-(2-(4-(2,3-dimethylphenyl)piperazin-1-yl)ethyl)-8-ethyl-9-(4-fluorophenyl)-9H-purine-6-amine], the results for the IC50 in experiment [1], in experiment [2] and in experiment [3] were 0.0765 µM, 0.0075 µM and 0.146 µM, respectively. Further, the “Immobility in forced swimming test” value in the experiment with mice (25 mg/kg po) turned out to be 71.41 ± 10.84%; in the experiment on mice (50 mg/kg po), 77.46 ± 12.27%.

Consider `Cc1cccc(N2CCN(CCCNc3ncnc4c3nc(C)n4-c3ccc(Cl)cc3)CC2)c1C` [Example 70, 9-(4-chlorophenyl)-N-(3-(4-(2,3-dimethylphenyl)piperazin-1-yl)propyl)-8-methyl-9H-purine-6-amine], for which the IC50 stood at 0.316 µM in experiment [1], 0.0543 µM in experiment [2] and 0.0438 µM in experiment [3]. Moreover, the “Immobility in forced swimming test” value in the experiment with mice (25 mg/kg po) is reported as 80.67 ± 12.19%; with mice (50 mg/kg po), 53.34 ± 10.82%.

For `Cc1cccc(N2CCN(CCCNc3ncnc4c3nc(C)n4-c3ccc(C(F)(F)F)cc3)CC2)c1C` [Example 76, N-(3-(4-(2,3-dimethylphenyl)piperazin-1-yl)propyl)-8-methyl-9-(4-(trifluoromethyl)phenyl)-9H-purine-6-amine], the IC50 in experiment [1] was determined as 0.453 µM; in experiment [2] it was 0.0431 µM; in experiment [3] it was 0.128 µM. Further, the entries for the “Immobility in forced swimming test” value with mice (25 mg/kg po) and in the experiment with mice (50 mg/kg po) were 79.98 ± 7.42% and 90.13 ± 4.29%, respectively.

As to `Cc1cccc(N2CCN(CCCNc3ncnc4c3nc(-c3ccccc3)n4-c3ccc4c(c3)OCO4)CC2)c1C` [Example 83, 9-(benzo[d][1,3]dioxol-5-yl)-N-(3-(4-(2,3-dimethylphenyl)piperazin-1-yl)propyl)-8-phenyl-9H-purine-6-amine], the figures for the IC50 in experiment [1], in experiment [2] and in experiment [3] were 0.198 µM, 0.03 µM and 0.042 µM, respectively. The “Immobility in forced swimming test” value in the experiment with mice (25 mg/kg po) was determined as 70.43 ± 6.15%.

For `CSc1ccc(-n2c(C)nc3c(NCCCN4CCN(c5cccc(C)c5C)CC4)ncnc32)cc1.Cl` [Example 86, N-(3-(4-(2,3-dimethylphenyl)piperazin-1-yl)propyl)-8-methyl-9-(4-(methylthio)phenyl)-9H-purine-6-amine hydrochloride], the results for the IC50 in experiment [1], in experiment [2] and in experiment [3] were 0.376 µM, 0.025 µM and 0.064 µM, respectively. In addition, the “Immobility in forced swimming test” value in the experiment on mice (25 mg/kg po) came to 66.53 ± 8.35%.

As for `CCc1nc2c(NCCN3CCN(c4cccc(C)c4C)CC3)ncnc2n1-c1ccc(SC)cc1.Cl` [Example 87, N-(2-(4-(2,3-dimethylphenyl)piperazin-1-yl)ethyl)-8-ethyl-9-(4-(methylthio)phenyl)-9H-purine-6-amine hydrochloride], the IC50 in experiment [1] turned out to be 0.1 µM; in experiment [2], 0.0093 µM; in experiment [3], 0.136 µM. Moreover, the “Immobility in forced swimming test” value in the experiment with mice (25 mg/kg po) is 88.26 ± 6.05%.

For `Cc1cccc(N2CCN(CCNc3ncnc4c3nc(-c3cccs3)n4-c3ccccc3)CC2)c1C.Cl` [Example 91, N-(2-(4-(2,3-dimethylphenyl)piperazin-1-yl)ethyl)-9-phenyl-8-(thiophen-2-yl)-9H-purine-6-amine hydrochloride], the IC50 in experiment [1] turned out to be 0.141 µM; in experiment [2], 0.028 µM; in experiment [3], 0.316 µM. The “Immobility in forced swimming test” value with mice (25 mg/kg po) came out at 89.19 ± 9.17%.

(Values after US8785453B2, “Arylpiperazine-containing purine derivatives and uses thereof” (Green Cross Corporation, priority 2009, dated 2014).)
